Test results: patent US20110091473A1, “NOVEL ANTIBODY THERAPIES” (GENMAB A/S, priority 2007, published 2011)

Assays:
[1] = tested on: B cell enriched cell population of a healthy volunteer; experiment: Anti-CD20-induced CDC of freshly isolated primary B cells; assay type: cell-based, human; details: for primary B cell population killed / cell lysis: MβCD-treated, saturating conditions (≧10 μg/ml); for cell lysis upon cholesterol depletion: primary B cells treated with MβCD
Method: Blood was obtained from a donor (either from a healthy volunteer or from patients included in clinical trials related to 2F2). Informed consent was provided according to the Declaration of Helsinki. The blood was used to isolate peripheral blood mononuclear cells (PMBC) via […] gradient separation. Briefly, 10 ml of whole blood was supplemented with 20-25 ml PBS (Braun, Oss, Netherlands). 13 ml of Lymphocyte Separation Medium (Lonza, Verviers, Belgium) was pipetted carefully underneath the diluted whole blood solution. The solution was centrifuged at 2000 rpm for 20 minutes whereupon the interphase containing the PBMC was collected. The cells were washed twice in PBS, counted with trypan blue and suspended in test medium (RMPI 1640/pen strep/0.1% BSA) at a concentration of 2-4×10^6 viable cells/ml. Cells were used to enrich B cells via negative depletion as described in Example 8.
PBMC (obtained as described under Example 17) were used to enrich for B cells using the Dynal B cell negative isolation kit (Dynal, Invitrogen, Carlsbad, Calif.) according to manufacturer's instruction. In brief, PBMC were washed and incubated for 20 minutes with mouse monoclonal antibodies directed against CD2, CD14, CD16, CD36, CD43 or CD235a at 4° C. Magnetic beads coated with human IgG4 against mouse monoclonal antibodies were added and the mixture was again incubated for 15 minutes at 4° C. After incubation mouse mAb-stained cells were separated from the mixture using a magnet. The remaining cells are considered as the B cell enriched population.
Human B cells were isolated from whole blood of a healthy volunteer (donor A) as described under Example 17 and Example 18.
The B cell enriched cell population of donor A and Daudi cells were incubated with MβCD as described under Example 2 and cell surface protein expression and sensitivity for CDC was measured.

[2] = tested on: RAJI cells; experiment: CDC of RAJI cells, MTT analysis; assay type: cell-based, human
Method: CDC was induced by incubating B cells with anti-CD20 mAb (as described in Example 2). After 1-hour incubation (3-(4,5-dimethylthiazol-2-yl)-2,5-diphenyltetrazolium bromide (MTT) solution (5 mg/ml, Roche, Diagnostics, Almere, The Netherlands) was added to each well (flat-bottom microtiter plates; Nunc, Rochester, N.Y.). The reaction was stopped after 4 hours of incubation at 37° C. by the addition of 100 μl of 20% SDS (Roche Diagnostics, Almere, The Netherlands). After overnight incubation at 37° C. the absorbance of the samples was measured at 550-525 nm using an Elisa reader (EL808x, Biotek instruments, Highland park, Vt., USA). Cytotoxicity was expressed as a relative viability of the stimulated cells compared to cells incubated with medium only and was calculated as follows: relative viability=[(Ae−Ab)/(Ac−Ab)]*100, where Ab is the background absorbance, Ae is experimental absorbance of the lysed cells and Ac is the absorbance of untreated cells. The viability was expressed as percentage survival in comparison to non-cholesterol depleted cells (control).

[3] = biological target: T1, CD20 on Daudi cells (Homo sapiens, UniProt P11836); experiment: FACS binding of anti-CD20 mAb to MβCD-treated Daudi cells
T1 construct: endogenous in cells; host or cells: Daudi cells
T1 sequence (P11836 1-297): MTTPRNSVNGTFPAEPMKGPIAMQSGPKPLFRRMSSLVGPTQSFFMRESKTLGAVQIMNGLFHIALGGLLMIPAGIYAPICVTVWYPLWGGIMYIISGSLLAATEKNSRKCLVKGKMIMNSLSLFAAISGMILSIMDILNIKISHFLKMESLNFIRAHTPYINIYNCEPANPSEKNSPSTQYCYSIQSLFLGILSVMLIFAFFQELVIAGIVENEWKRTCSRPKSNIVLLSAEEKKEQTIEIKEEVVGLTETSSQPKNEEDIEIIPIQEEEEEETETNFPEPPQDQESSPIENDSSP
Method: To deplete cholesterol from the cell membrane, methyl-beta-cyclodextrin (MβCD, Sigma, Zwijndrecht, The Netherlands) was added in varying concentrations to Daudi cells and RAJI-CD20high cells and incubated for 30 minutes at 37° C. under gentle shaking conditions. After incubation the cells were washed twice in PBS and resuspended in test medium to a concentration of 2×10^6 viable cells/ml. […] After washing twice with FACS buffer (PBS, 0.1% Bovine Serum Albumine, 0.02% Sodium Azide), cells were analyzed on a FACS Calibur (Becton Dickinson, Breda, The Netherlands). […] Binding is expressed as mean fluorescence intensity.
Cholesterol was depleted from the cell membrane of various B cells using varying concentrations of MβCD (as described in Example 2). Cells (1×10^5 cells/staining) were incubated with a serial dilution of human CD20 mAb 2F2 starting at saturating concentrations for 30 minutes at 4° C. After washing with FACS buffer, polyclonal rabbit-anti-human IgG-FITC (DAKO A/S, Denmark) was added for 30 minutes at 4° C. The cells were washed again, resuspended in FACS buffer and analyzed by flow cytometry. The mean fluorescence intensity (MFI) is a measure for CD20 binding of the mAb. Sigmoidal dose-response curves were calculated using non-linear regression and the EC50 of mAb binding were determined (using GraphPad Prism 4 statistical software).

[4] = tested on: Daudi cells; experiment: CDC of Daudi cells, Alamar Blue assay; assay type: cell-based, human
[5] = tested on: Daudi cells; experiment: CD20 mAb-induced CDC of Daudi cells, PI/FACS analysis; assay type: cell-based, human; details: for induction of CDC: non-treated Daudi cells, 15% normal human serum
Method: Cells were either non-treated or cholesterol-depleted as described in Example 2, Example 3 and Example 4, and resuspended in test medium to a concentration of 2×10^6 viable cells/ml. Daudi cells were used as target cells in a mAb-induced CDC assay. 50 μl of cell suspension was incubated with 50 μl anti-CD20 mAb in a serial dilution for 15 minutes at room temperature. After the incubation period, Normal Human Serum (M0008, Sanquin, Amsterdam, The Netherlands) was added as a source of complement (final concentration, 15%) to the cell suspension in round-bottomed microtiter plates (Nunc, Rochester, N.Y.). The mixture was incubated for 45 minutes at 37° C. after which the reaction was stopped by placing the samples on ice. Propidium iodide (PI, Sigma Aldrich, Zwijndrecht, The Netherlands) was added as a means to visualize the DNA content which becomes accessible upon permeabilisation of the cell membrane. The amount of PI-positive cells is directly correlated to the amount of dead cells, and measured using flow cytometry.

[6] = tested on: WIL2-S cells; experiment: CD20 mAb-induced CDC of WIL2-S cells, PI/FACS analysis; assay type: cell-based, human; details: for CDC inducing capacity after cholesterol replenishment: WIL2-S cells, cholesterol replenished; for sensitivity for CDC induction: lovastatin-treated vs non-treated WIL2-S cells

reduction of binding affinity for CD20 (increase in EC50) ([3]; 0 mg/ml vs 5 mg/ml MβCD, Daudi cells) [fold]	binding of FITC-conjugated mAb (mean fluorescence intensity) ([3]; Daudi cells treated with varying concentrations of MβCD, 30 min)	Substance	primary B cell population killed / cell lysis [1]	lysis of B cell enriched cell population ([1]; non-depleted primary B cells, donor A)	cell lysis upon cholesterol depletion [1]	potency to lyse cells in presence of complement, compared with rituximab ([2]; RAJI cells depleted of cholesterol with MβCD)	potency in inducing cell lysis, compared with rituximab or 11B8 ([4]; Daudi cells)	CDC induction when treating cells with lovastatin ([4]; lovastatin-treated Daudi cells)	survival upon mAb-induced CDC ([4]; lovastatin-treated Daudi cells)	cells lysed via CDC ([5]; cholesterol-depleted Daudi cells) [%]	induction of CDC [5]	CDC inducing capacity after cholesterol replenishment [6]	sensitivity for CDC induction [6]	survival after CDC induction ([2]; RAJI cells depleted by lovastatin or MβCD vs non-treated)	capability to lyse cells after cholesterol replenishment ([2]; depleted RAJI cells replenished with cholesterol vs non-treated)	binding affinity upon cholesterol depletion ([3]; MβCD-treated Daudi cells)	CDC-mediated lysis ([5]; cholesterol-depleted (lovastatin or MβCD) Daudi cells)
~8	dose-dependent decrease in binding	2F2: human anti-CD20 mAb, VH SEQ ID NO:1, VL SEQ ID NO:2, disclosed in WO 2004/035607	approximately 75%	could be lysed	reduced	more potent	more potent	still capable of inducing CDC	enhanced survival	50	induced CDC	fully restored	less sensitive	–	–	–	–
–	–	rituximab: anti-CD20 antibody Rituxan/MabThera, type I	20-25%	–	reduced	–	–	–	enhanced survival	–	induced CDC	fully restored	less sensitive	enhanced survival	further increased the capability	negatively affected	abrogated
